Source: patent publication US20250144131A1, “POLYSACCHARIDE COMPOUND WITH A DEFINED MOLECULAR STRUCTURE FOR THE TREATMENT OF PULMONARY FIBROSIS” (SHENZHEN YANDAI INVESTMENT CO., LTD, priority 2023, published 2025)

Tests used:
Type in all cases: in vivo, C57BL/6J mice
[1] = tested on: bleomycin-induced pulmonary fibrosis model; assay: Pulmonary histopathology (H&E, pathology scores) in bleomycin-induced pulmonary fibrosis mice
Procedure: (§1) Fifty male SPF C57BL/6J mice were randomized by weight into the normal control group, model control group, positive control group, GLP-4 low-dose group, and GLP-4 high-dose group, with 10 animals in each group. Ten animals not subjected to modeling served as the normal control group. The remaining animals were modeled by administering bleomycin via tracheal injection at 5 mg/kg, 0.1 mL per mouse, one-time administration. Starting on day 7 post-modeling, the study drug, positive drug, or solvent was administered orally at 10 mL/kg once daily for 21 consecutive days. During the experimental period, daily observations were made for each group's food intake, activity, breathing, and responsiveness; pulmonary function was tested before administration and about 24 h after the last dose. After completing pulmonary function tests, the mice were euthanized for pathological sampling.
Pulmonary histopathology: Following lung function tests, mice were euthanized, and a laparotomy was performed. Whole-body perfusion was conducted using saline through the portal vein followed by thoracotomy and perfusion-fixation with 10% formaldehyde solution for 5 min. The trachea was then ligated, the lungs were harvested, and further fixed in formalin solution for 48 h. Hematoxylin and eosin (H&E) staining was performed to observe pathological changes.

[2] = tested on: bleomycin-induced pulmonary fibrosis model; assay: General behavioral observation in bleomycin-induced pulmonary fibrosis mice; conditions: oral 21 days, pirfenidone 225 mg/kg, GLP-4 low-dose 200 mg/kg
Procedure: as §1
General behavioral observation: During the trial period, daily observations were made on the animals' consumption, activity, breathing, and responsiveness.

[3] = tested on: bleomycin-induced pulmonary fibrosis model; assay: Lung function test (EMKA WBP) in bleomycin-induced pulmonary fibrosis mice
Procedure: as §1
Lung function: Lung function in mice was measured using the EMKA WBP animal lung function assessment system both before administration and approximately 24 h after the last dose. Measurements included inspiratory (expiratory) duration, maximum inspiratory (expiratory) volume, tidal volume, expiratory volume, relaxation time, minute ventilation, respiratory rate, end inspiratory (expiratory) pause, bronchoconstriction parameters, 50% expiratory flow, alveolar ventilation, and number of breaths.

[4] = 21 days post-dosing, pirfenidone 225 mg/kg po daily
[5] = prior to administration (one week post-modeling), pirfenidone 225 mg/kg group

In the case of `Cc1ccc(=O)n(-c2ccccc2)c1` [positive control, pirfenidone], the Fibrotic tissue proliferation ([1]; bleomycin mice, H&E, pirfenidone 225 mg/kg, GLP-4 low-dose 200 mg/kg) is reported as “no fibrotic tissue proliferation”, the Pathology score ([1]; lung, pirfenidone 225 mg/kg po daily, 21 days) is reported as 6.22 ± 3.31 and the “General behavior compared to the model control group” value [2] is reported as “noticeable improvements in appetite, activity, breathing, responsiveness, and fur condition”. For the same molecule, the “AV (alveolar ventilation)” value [3, 4] was 119.87 ± 38.33 mL, the “EEP (end expiratory pause)” value [3, 4] was 5.89 ± 0.57 ms and the “EF50 (50% expiratory flow)” value [3, 4] was 5.31 ± 0.91 mL/s. The “EIP (end inspiratory pause)” value [3, 4] was 18.83 ± 9.94 ms, the “EV (expiratory volume)” value [3, 4] was 0.14 ± 0.01 mL and the “MV (minute ventilation)” value [3, 4] was 64.98 ± 11.84 mL. The “PEF (peak expiratory flow)” value [3, 4] was 5.59 ± 0.86 mL/s, the “PIF (peak inspiratory flow)” value [3, 4] was 4.49 ± 0.75 mL/s and the “Penh (bronchoconstriction parameters)” value [3, 4] was 0.56 ± 0.22. For the same molecule, the “RT (relaxation time)” value [3, 4] was 57.72 ± 22.68 ms, the “TV (tidal volume)” value [3, 4] was 0.14 ± 0.01 mL and the “Te (expiratory duration)” value [3, 4] was 73.20 ± 22.54 ms. For the same molecule, the “Ti (inspiratory duration)” value [3, 4] was 79.85 ± 12.82 ms, the “n (number of breaths)” value [3, 4] was 40.22 ± 17.53 and the “Lung function indices compared to the model control group” value ([3]; bleomycin mice, 21 days post-dosing, pirfenidone 225 mg/kg, GLP-4 low-dose 200 mg/kg) was “significant increases in PIF, PEF, TV, EV, MV, EF50, and alveolar ventilation (AV)”. The “AV (alveolar ventilation)” value [3, 5] was 70.49 ± 10.76 mL, the “EEP (end expiratory pause)” value [3, 5] was 5.70 ± 0.71 ms and the “EF50 (50% expiratory flow)” value [3, 5] was 5.68 ± 0.95 mL/s. The “EIP (end inspiratory pause)” value [3, 5] was 62.63 ± 33.56 ms, the “EV (expiratory volume)” value [3, 5] was 0.15 ± 0.02 mL and the “MV (minute ventilation)” value [3, 5] was 52.78 ± 12.68 mL. For the same molecule, the “PEF (peak expiratory flow)” value [3, 5] was 5.94 ± 0.94 mL/s, the “PIF (peak inspiratory flow)” value [3, 5] was 4.63 ± 0.69 mL/s and the “Penh (bronchoconstriction parameters)” value [3, 5] was 0.44 ± 0.15. The “RT (relaxation time)” value [3, 5] was 105.6 ± 46.61 ms, the “TV (tidal volume)” value [3, 5] was 0.15 ± 0.02 mL and the “Te (expiratory duration)” value [3, 5] was 120.91 ± 48.12 ms. The “Ti (inspiratory duration)” value [3, 5] was 109.26 ± 23.25 ms and the “n (number of breaths)” value [3, 5] was 23.82 ± 4.54.
